{"source": "patent US8703813B2", "about": "“Compound with spiro chiral carbon backbone, preparation method thereof, and pharmaceutical composition containing the same” (SNU R & DB Foundation, priority 2008, dated 2014)", "key": {"Runx2 and TAZ": {"system": "Runx2 and TAZ", "test": "Western blot of osteoblast differentiation mark factors", "assay_type": "cell-based, mouse", "conditions": "C3H/10T1/2 treated for 6 days", "description": "An aliquot 116V and an aliquot 116VI extracted and partitioned from sponges are dissolved in a DMSO solvent, and used to treat the C3H/10T1/2 cell line, mesenchymal progenitor cells, at concentrations of 1, 2.5, 5, 10, and 20 ug/ml. […] Since then, the same experiment was performed on the compound (1163), the compound 2 (1162), the compound 3 (1161), and the compound 4 (1164), which were purely separated from the aliquots 116V and 116VI, and as a result, it could be confirmed that the osteoblast differentiation ability was increased in the compounds 1, 3, and 4. […] To study a mechanism with respect to osteoblast differentiation ability, the C3H/10T1/2 cell lines were treated with the compound 1 and the compound 4 for 6 days, respectively. […] Also, the C3H/10T1/2 cell lines were treated with the compound 1 and the compound 4 for 6 days, respectively. […] Furthermore, it could be ascertained that combining of Runx2 and TAZ proteins was increased by treatment of the compounds and thus the activity of Runx2-meditated transcription was increased. The compound 5, which is an ester derivative of the compound 1 (1163), was synthesized in order to prepare a material having more excellent bioactivity, and the structure of the compound 5 obtained thus was determined. […]"}, "other nuclear receptors": {"system": "other nuclear receptors", "test": "Selectivity for various nuclear receptors, transfection assay", "assay_type": "cell-based", "conditions": "same method as LXR assay", "description": "Animal cell line CV-1 was used in transfection search. Cells were cultured in DMEM medium within a cell culture device containing 5% carbon dioxide at 37° C. The medium contained 10% FBS (fetal bovine serum), 100 U/ml penicillin, and 100 μg/ml streptomycin. On day 1 of the experiment, CV 1 cells were seeded in 96 well plates at 5,000 cells/well. On day 2, the seeded cells were transfected with plasmid expressing GAL-hLXR, plasmid expressing Luciferase gene, and plasmid expressing β-galactocidase by using a transfection reagent, Superfect (QIAGEN). After 16 hours, the transfected cells were treated with the compound 1 dissolved in dimethylsulfoxide (DMSO) by the concentrations, together with the agonist, TO901317 (2.5 μM). Cells treated with dimethylsulfoxide having the final concentration of 1% were used as a negative control group, and cells treated with T0901317 having the final concentration of 500 nM were used as a positive control group. The cells were cultured for 24 hours, and lysed by using a lysis buffer. […] The β-galactosidase activity, after adding of an ONPG reagent, was measured using an ELISA reader. The measured Luciferase value was corrected by activity value of β-galactosidase. […] In addition, the activities on various nuclear receptors were measured by using the same method, in order to measure selectivity for various nuclear receptors."}}, "data": [{"compound": "CC(C)=CCC/C(C)=C/[C@H]1CC(C)=C[C@@]2(C=C(CO)[C@@H]3CC(=O)C(C)=C[C@@H]3O2)O1", "note": "[Compound 1]", "values": [{"measurement": "protein expression of Runx2 and TAZ", "setting": "Runx2 and TAZ", "value": "increased"}, {"measurement": "activity on the other nuclear receptors", "setting": "other nuclear receptors", "value": "never showed the activity"}]}]}
